Literature values, collected in patent publication US8415449B2, “Bioresorbable polymers synthesized from monomer analogs of natural metabolites” (Rutgers, The State University of New Jersey, priority 2009, dated 2013).

Details: as part of the clinical evaluation of the sebacic acid anhydride copolymer

In the case of `O=C(O)CCCCCCCCC(=O)O` [sebacic acid], the toxicity finding is listed as “nontoxic”.
